Results: patent publication EP2790511B1 (Merck Sharp & Dohme Corp., priority 2011, dated 2013)
Where two headings read alike, the source gives them in different places.

Tests used:
hROMK (hKir1.1) = biological target: T1, hROMK (hKir1.1) (Homo sapiens, UniProt P48048); assay: Thallium Flux Assay; assay type: cell-based
T1 construct: expressed in transfected cells
T1 sequence (P48048 1-391): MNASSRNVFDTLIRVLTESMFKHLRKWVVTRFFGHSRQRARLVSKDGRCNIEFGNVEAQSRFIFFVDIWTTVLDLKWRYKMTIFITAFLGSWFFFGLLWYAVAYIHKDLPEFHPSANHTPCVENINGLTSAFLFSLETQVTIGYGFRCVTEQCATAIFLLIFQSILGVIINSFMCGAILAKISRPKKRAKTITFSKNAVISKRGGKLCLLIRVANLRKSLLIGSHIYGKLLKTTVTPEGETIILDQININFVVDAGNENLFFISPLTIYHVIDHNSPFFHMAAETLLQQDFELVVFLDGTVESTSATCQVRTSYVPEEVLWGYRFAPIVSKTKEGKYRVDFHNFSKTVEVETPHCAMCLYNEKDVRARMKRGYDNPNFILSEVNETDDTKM
Outline: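 HEK293 cells stably expressing hROMK, loaded with FluxOR dye 90 min at ambient temperature, then compound 30 min with 0.3 mM ouabain in probenecid buffer pH 7.4.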

Kir1.1 (ROMK1) = biological target: T2, Kir1.1 (ROMK1) (Homo sapiens, UniProt P48048); assay: Electrophysiology Assay (whole cell voltage clamp, IonWorks Quattro)
T2 sequence (P48048 1-391): T1 sequence (P48048 1-391)
Description: Chinese hamster ovary cells stably expressing Kir1.1 channels were maintained in T-75 flasks in cell culture media in a humidified 10% CO2 incubator at 37 °C. Prior to an experiment, Kir1.1 expression was induced by overnight incubation with 1 mM sodium butyrate. […] After centrifugation, the cell pellet was resuspended in approximately 4.0 mL of bath solution and placed in the IonWorks instrument. The intracellular solution consisted of (in mM): 80 K gluconate, 40 KCl, 20 KF, 3.2 MgCl2, 3 EGTA, 5 Hepes, pH 7.4. Electrical access to the cytoplasm was achieved by perforation in 0.13 mg/mL amphotericin B for 4 min. […] Voltage protocols and current recordings were performed using the IonWorks HT software/hardware system. Currents were sampled at 1 kHz. No correction for liquid junction potentials was used. The test pulse, consisting of a 100 ms step to 0 mV from a holding potential of -70 mV, followed by a 100 ms voltage ramp from -70 mV to +70 mV, was applied before and after a 6 min compound incubation period. Test compounds were prepared by diluting DMSO stock solutions into the bath solution at 3x the final concentration and placed in the instrument in 96-well polypropylene plates. Current amplitudes were measured using the IonWorks software.

[1] = HEK293 cells stably expressing hROMK (hKir1.1), FLIPR-Tetra, read-out: Thallium Flux IC50

| Compound | IC50 (hROMK (hKir1.1); Thallium Flux IC50) [nM] | IC50 (Kir1.1 (ROMK1)) [nM] | IC50 (hROMK (hKir1.1); [1]) [nM] |
| --- | --- | --- | --- |
| Cc1c([C@H]2CN3CCN(C(=O)Cc4cnc(-n5cnnn5)nc4)C[C@H]3CO2)ccc(F)c1C#N [Example 6, 6-fluoro-2-methyl-3[(3S,9aS)-8-{[2-(1H-tetrazol-1-yl)pyrimidin-5-yl]acetyl}octahydropyrazino[2,1-c][1,4]oxazin-3-yl]benzonitrile] | 100 | 40 |  |
| Cc1nc(-n2cnnn2)ncc1CC(=O)N1CCN2C[C@H](c3ccc(F)c(C#N)c3C)OC[C@@H]2C1 [Example 121, 6-fluoro-2-methyl-3-[(3S,9aS)-8-{[4-methyl-2-(1H-tetrazol-1-yl)pyrimidin-5-yl]acetyl}octahydropyrazino[2,1-c][1,4]oxazin-3-yl]benzonitrile] | 120 | 90 |  |
| Cc1c([C@@H]2CN3CCN(C(=O)Cc4cnc(-n5cnnn5)nc4)C[C@@H]3CO2)ccc(F)c1C#N [Example 13, 6-fluoro-2-methyl-3-[(3R,9aR)-8-{[2-(1H-tetrazol-1-yl)pyrimidin-5-yl]acetyl}octahydropyrazino[2,1-c][1,4]oxazin-3-yl]benzonitrile] | 110 | 30 |  |
| Cc1c([C@@H]2CN3CCN(C(=O)Cc4ccc(-n5cnnn5)cn4)C[C@H]3CO2)ccc(F)c1C#N [Example 2, 3-((3R,9aS)-8-(2-(5-(1H-tetrazol-1-yl)pyridin-2-yl)acetyl)octahydropyrazino[2,1-c][1,4]oxazin-3-yl)-6-fluoro-2-methylbenzonitrile] |  | 70 | 120 |
| Cc1c([C@H]2CN3CCN(C(=O)Cc4ccc(-n5cnnn5)nc4)C[C@H]3CO2)ccc(F)c1C#N [Example 4, 6-fluoro-2-methyl-3-[(3S,9aS)-8-{[6-(1H-tetrazol-1-yl)pyridin-3-yl]acetyl}octahydropyrazino[2,1-c][1,4]oxazin-3-yl]benzonitrile] | 70 | 40 |  |
| COc1cc(F)c([C@@H]2CN3CCN(C(=O)Cc4ccc(-n5cnnn5)nc4)C[C@H]3CO2)cc1C#N [Example 57, 4-fluoro-2-methoxy-5-[(3R,9aS)-8-{[6-(1H-tetrazol-1-vl)pvridin-3-yl]acetyl}octahydropyrazino[2,1-c][1,4]oxazin-3-yl]benzonitrile] |  | 190 | 210 |
| COc1c([C@H]2CN3CCN(C(=O)Cc4ccc(-n5cnnn5)nc4)C[C@H]3CO2)ccc(F)c1C#N [Example 61, 6-fluoro-2-methoxy-3-[(3S,9aS)-8-{[6-(1H-tetrazol-1-vl)pvridin-3-yl]acetyl}octahydropyrazino[2,1-c][1,4]oxazin-3-yl]benzonitrile] |  | 70 | 130 |
| Cc1c([C@H]2CN3CCN(C(=O)Cc4ccc(-n5cnnn5)cn4)C[C@H]3CO2)ccc(F)c1C#N [Example 3, 3-((3S,9aS)-8-(2-(5-(1H-tetrazol-1-yl)pyridin-2-yl)acetyl)octahydropyrazino[2,1-c][1,4]oxazin-3-yl)-6-fluoro-2-methylbenzonitrile] |  | 100 | 90 |
